Laboratory results reported in patent US8569336B2, “Compounds for the treatment of inflammatory disorders” (priority 2008, dated 2013).
pIC50, pKi: −log10 of the molar value. Like-named read-outs stand apart in the source and are kept apart here.

Assays:
[1] = biological target: T1, purified catalytic domain of recombinant human TACE (rhTACEc) (Homo sapiens, UniProt P78536, N452Q/S266A); assay: TACE kinetic assay: cleavage of internally quenched peptide substrate TNF-FRET 2 (Ki); assay type: biochemical; conditions: TNF-FRET 2 substrate
T1 construct: 6xHis (C); made in house; host or cells: baculovirus/Hi5 insect cells
T1 sequence (P78536 215-477 S266A/N452Q): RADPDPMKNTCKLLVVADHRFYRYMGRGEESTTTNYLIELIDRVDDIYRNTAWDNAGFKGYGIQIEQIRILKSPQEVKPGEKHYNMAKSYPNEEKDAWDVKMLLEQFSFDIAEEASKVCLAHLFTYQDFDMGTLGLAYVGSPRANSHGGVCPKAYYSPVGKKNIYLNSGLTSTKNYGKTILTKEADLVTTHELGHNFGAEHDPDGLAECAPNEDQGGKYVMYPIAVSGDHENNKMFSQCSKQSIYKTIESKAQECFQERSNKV

[2] = system: TNF-α production from human whole blood; assay: Inhibition of TNF-α production from human whole blood (hWBA), LPS stimulated, ELISA; assay type: cell-based; conditions: Homo sapiens, TNF-α by ELISA, read-out: hWBA (IC50)
[3] = Area under the curve determinations of plasma levels in rats (rrAUC), oral 10 mg/kg; assay type: in vivo; conditions: rat, read-out: RR AUC (rapid rat AUC, rrAUC)
[4] = 3.5 h, human whole blood diluted 1:1, LPS stimulated, 3.5 h
[5] = human whole blood diluted 1:1, LPS stimulated
[6] = plasma, blood collected 0.5-6 h post-dosing
[7] = LPS-stimulated human whole blood

| Compound | pKi ([1]; read-out: Ki) | pIC50 [2, 4] | AUC ([3]; plasma 0.5-6 h post-dosing) [µM·h] | pIC50 [2, 5] | AUC [3, 6] [µM·h] | pIC50 [2, 7] | AUC ([3]; plasma 0.5-6 h) [µM·h] | pKi ([1]; Ki) |
| --- | --- | --- | --- | --- | --- | --- | --- | --- |
| COc1ccc2c(c1)C(=O)N(C[C@@]1(c3cc4cc(-c5ccncc5)ncc4o3)NC(=O)NC1=O)C2 [Compound 2238] | 9.05 | 6.20 | 4.86 |  |  |  |  |  |
| COc1ccc2c(c1)C(=O)N(C[C@@]1(c3cc4nc(Nc5c(C)nn(C)c5C)ccc4o3)NC(=O)NC1=O)C2 [Compound 2112] | 9.41 | 6.27 | 0.019 |  |  |  |  |  |
| COc1ccc2c(c1)C(=O)N(C[C@@]1(c3cc4nc(C#N)ccc4o3)NC(=O)NC1=O)C2 [Compound 2473] | 9.49 |  |  | 6.25 | 5.69 |  |  |  |
| COc1ccc2c(c1F)C(=O)N(C[C@@]1(c3cc4nc(N5CCNC5=O)c(F)cc4o3)NC(=O)NC1=O)C2 [Compound 1331] | 9.18 |  |  |  |  | 6.51 | 0.67 |  |
| COc1ccc2c(c1)C(=O)N(C[C@@]1(c3cc4nc(-n5ccnc5)ccc4o3)NC(=O)NC1=O)C2 [Compound 2164] | 9.25 | 6.77 | 0.534 |  |  |  |  |  |
| COc1ccc2c(c1)C(=O)N(C[C@@]1(c3cc4cnc(C(F)(F)F)cc4o3)NC(=O)NC1=O)C2 [Compound 2269] |  | 5.79 | 19.3 |  |  |  |  | 9.30 |
| CC[C@@H]1CN(c2ccc3oc([C@]4(CN5Cc6ccc(OC)cc6C5=O)NC(=O)NC4=O)cc3n2)CCN1 [Compound 2124] | 8.96 | 6.57 | 0.014 |  |  |  |  |  |
| COc1ccc2c(c1F)C(=O)N(C[C@@]1(c3cc4ccncc4o3)NC(=O)NC1=O)C2 [Compound 2272] | 9.52 | 6.78 | 2.79 |  |  |  |  |  |
| COc1ccc2c(c1)C(=O)N(C[C@@]1(c3cc4cc(C5(C(N)=O)CC5)ccc4o3)NC(=O)NC1=O)C2 [Compound 2421] | 9.42 |  |  | 6.05 | 0.037 |  |  |  |
| COc1ccc2c(c1)C(=O)N(C[C@@]1(c3cc4cnc(-c5ccccc5F)cc4o3)NC(=O)NC1=O)C2 [Compound 2234] | 9.28 | 4.84 | 127 |  |  |  |  |  |
| CCNC(=O)Nc1ccc2oc([C@]3(CN4Cc5ccc(OC)cc5C4=O)NC(=O)NC3=O)cc2c1 [Compound 2229] |  | 6.34 | 0.158 |  |  |  |  | 9.41 |
| COc1ccc2c(c1F)C(=O)N(C[C@@]1(c3cc4nc(-c5ccc(N)nc5)ccc4o3)NC(=O)NC1=O)C2 [Compound 1716] | 9.32 |  |  |  |  | 6.88 | 0.393 |  |
| CNC(=O)c1ccc2oc([C@]3(CN4Cc5ccc(OC)cc5C4=O)NC(=O)NC3=O)cc2n1 [Compound 2462] | 9.07 |  |  | 6.55 | 1.07 |  |  |  |
| CNS(=O)(=O)c1cc2oc([C@]3(CN4Cc5ccc(OC)cc5C4=O)NC(=O)NC3=O)cc2cc1C [Compound 2480] |  |  |  | 5.86 | 0.212 |  |  | 9.37 |
| COc1ccc2c(c1)C(=O)N(C[C@@]1(c3cc4nc(NS(=O)(=O)C5CC5)ccc4o3)NC(=O)NC1=O)C2 [Compound 1938] | 9.24 |  |  |  |  | 6.29 | 0.015 |  |
| CCc1cc2oc([C@]3(CN4Cc5ccc(OC)cc5C4=O)NC(=O)NC3=O)cc2cn1 [Compound 2290] | 9.58 |  |  | 6.19 | 20.3 |  |  |  |
| COc1ccc2c(c1)C(=O)N(C[C@@]1(c3cc4nc(-c5cccnc5)ccc4o3)NC(=O)NC1=O)C2 [Compound 2107] | 9.04 | 6.77 | 3.08 |  |  |  |  |  |
| COc1ccc2c(c1)C(=O)N(C[C@@]1(c3cc4cc(-c5cc(N)n(C)n5)ccc4o3)NC(=O)NC1=O)C2 [Compound 2247] |  | 6.11 | 0.375 |  |  |  |  | 9.48 |
| COc1ccc2c(c1F)C(=O)N(C[C@@]1(c3cc4nc(C)c(N5CCC5=O)cc4o3)NC(=O)NC1=O)C2 [Compound 1922] | 8.90 |  |  |  |  | 6.55 | 0.088 |  |
| COc1ccc2c(c1)C(=O)N(C[C@@]1(c3cc4c(C)nccc4o3)NC(=O)NC1=O)C2 [Compound 2284] | 9.30 |  |  | 6.70 | 2.8 |  |  |  |
| COc1ccc2c(c1)C(=O)N(C[C@@]1(c3cc4cc(C5(C)NC(=O)NC5=O)c(F)cc4o3)NC(=O)NC1=O)C2 (stereo partly drawn) [Compound 2200] | 8.73 | 6.66 | 0.177 |  |  |  |  |  |
| COc1ccc2c(c1F)C(=O)N(C[C@@]1(c3cc4c5c(ccc4o3)C(=O)NC5)NC(=O)NC1=O)C2 [Compound 2506] | 9.49 |  |  | 6.81 | 0.437 |  |  |  |
